EP1074267B1, “Induction of antigen-specific T cells by interferon” (Dainippon Sumitomo Pharma Co., Ltd., priority 1999, dated 2001)
Where no end group is shown, it is not given here.

Tested on: EL-4 cells labeled with 51Cr and pulsed with the peptide Flu366-374
Conditions: administered alone using the osmotic pump (100 µg peptide or 10^5 U IFN-α, subcutaneous, 3-day release); spleen 7 days after administration, 5 days re-stimulation; Fig. 1(A)

ASNESMETM [peptide, Ala-Ser-Asn-Glu-Ser-Met-Glu-Thr-Met]
peptide-specific CTL induction (cytotoxic activity for peptide-pulsed EL-4 cells): no peptide-specific CTL was induced
